As a reminder, the Kd is the constant that tells how readily two partners part at equilibrium. The low end stands for higher affinity, the high end for lower affinity.

The target of the test is Tyrosine-protein kinase BTK (Homo sapiens, UniProt Q06187). The test is described as follows: Assay for Binding Affinity to BTK. The procedure:
Compounds were tested using a KdELECT assay. Kinase-tagged T7 phage strains were prepared in an E. coli host derived from the BL21 strain. E. coli were grown to log-phase and infected with T7 phage and incubated with shaking at 32° C. until lysis. The lysates were centrifuged and filtered to remove cell debris. The remaining kinases were produced in HEK-293 cells and subsequently tagged with DNA for qPCR detection. Streptavidin-coated magnetic beads were treated with biotinylated small molecule ligands for 30 minutes at room temperature to generate affinity resins for kinase assays. The liganded beads were blocked with excess biotin and washed with blocking buffer (SeaBlock (Pierce), 1% BSA, 0.05% Tween 20, 1 mM DTT) to remove unbound ligand and to reduce non-specific binding. Binding reactions were assembled by combining kinases, liganded affinity beads, and test compounds in 1× binding buffer (20% SeaBlock, 0.17×PBS, 0.05% Tween 20, 6 mM DTT). Test compounds were prepared as 111X stocks in 100% DMSO. Kd values were determined using an 11-point 3-fold compound dilution series with three DMSO control points. All compounds for Kd measurements are distributed by acoustic transfer (non-contact dispensing) in 100% DMSO. The compounds were then diluted directly into the assays such that the final concentration of DMSO was 0.9%. […] The kinase concentration in the eluates was measured by qPCR.

Some results are limits rather than exact numbers.

Sequence of Tyrosine-protein kinase BTK (Q06187 whole entry): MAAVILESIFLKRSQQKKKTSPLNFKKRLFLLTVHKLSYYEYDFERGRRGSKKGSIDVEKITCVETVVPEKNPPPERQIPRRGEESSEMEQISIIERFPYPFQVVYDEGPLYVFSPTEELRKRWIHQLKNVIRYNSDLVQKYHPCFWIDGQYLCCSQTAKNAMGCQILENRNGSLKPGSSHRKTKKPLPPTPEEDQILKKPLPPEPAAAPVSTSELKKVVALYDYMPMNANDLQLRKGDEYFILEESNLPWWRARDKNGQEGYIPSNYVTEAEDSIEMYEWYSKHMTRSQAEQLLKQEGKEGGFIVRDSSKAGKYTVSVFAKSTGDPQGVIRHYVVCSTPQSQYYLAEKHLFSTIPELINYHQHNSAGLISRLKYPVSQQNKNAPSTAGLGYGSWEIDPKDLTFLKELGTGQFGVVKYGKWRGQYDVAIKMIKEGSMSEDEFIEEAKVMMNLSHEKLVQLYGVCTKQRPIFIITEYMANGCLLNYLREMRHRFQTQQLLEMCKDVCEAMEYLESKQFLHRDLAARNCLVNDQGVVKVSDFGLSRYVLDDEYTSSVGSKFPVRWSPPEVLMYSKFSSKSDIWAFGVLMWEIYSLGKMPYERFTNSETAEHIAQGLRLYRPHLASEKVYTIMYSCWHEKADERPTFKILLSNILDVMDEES

Molecule `CCc1cnn2c(NCc3ccc(OCCOCCOCCOCCOCCOCCOCCOCCOCCOC/C=C/C(=O)N4CCC[C@@H](n5nc(-c6ccc(Oc7ccccc7)cc6)c6c(N)ncnc65)C4)nc3)cc(N3CCCC[C@H]3CCO)nc12` [US20250136619, Compound I-47] yielded a dissociation constant Kd below 50 nM.

Values taken from BindingDB's records for patent US20250136619 (Halda Therapeutics OPCO, 2025).
